According to ChEMBL document CHEMBL4706545, “Antiproliferative effect of mitochondria-targeting allobetulin 1,2,3-triazolium salt derivatives and their mechanism of inducing apoptosis of cancer cells” (Eur J Med Chem, 2020):
pIC50: −log10 of the molar value.

Experiments:
L02 = assay: Cytotoxicity against human HL7702 cells assessed as reduction in cell viability incubated for 48 hrs by MTT assay; format: ADME, cell-based; conditions: L02, 48 h
HeLa = assay: Cytotoxicity against human HeLa cells assessed as reduction in cell viability incubated for 48 hrs by MTT assay; format: functional, cell-based
ECa-109 cell line = assay: Cytotoxicity against human ECa-109 cells assessed as reduction in cell viability incubated for 48 hrs by MTT assay; format: functional, cell-based; conditions: ECa-109, 48 h
[1] = Selectivity index, ratio of IC50 for cytotoxicity against human HL7702 cells to IC50 for cytotoxicity against human SGC-7901 cells
[2] = Selectivity index, ratio of IC50 for cytotoxicity against human HL7702 cells to IC50 for cytotoxicity against human ECa-109 cells
SGC-7901 = assay: Cytotoxicity against human SGC-7901 cells assessed as reduction in cell viability incubated for 48 hrs by MTT assay; format: functional, cell-based; conditions: SGC-7901, 48 h
HepG2 = assay: Cytotoxicity against human HepG2 cells assessed as reduction in cell viability incubated for 48 hrs by MTT assay; format: functional, cell-based; conditions: HepG2, 48 h

SMILES | pIC50 (L02) | pIC50 (HeLa) | pIC50 (ECa-109 cell line) | Ratio IC50 [1] | Ratio IC50 [2] | pIC50 (SGC-7901) | pIC50 (HepG2)
COc1cccc2c1C(=O)c1c(O)c3c(c(O)c1C2=O)C[C@@](O)(C(=O)CO)C[C@@H]3O[C@H]1C[C@H](N)[C@H](O)[C@H](C)O1 [DOXORUBICIN] | 6.03 | 5.97 | 5.69 | 0.61 | 0.46 | 5.82 | –
CC1(C)CC[C@]23CC[C@]4(C)[C@H](CC[C@@H]5[C@@]6(C)Cc7nnn(Cc8ccc(C(F)(F)F)cc8)c7C(C)(C)[C@@H]6CC[C@]54C)[C@H]2[C@H]1OC3 | 4.59 | 4.55 | 4.47 | – | – | 4.49 | 4.54
COc1ccccc1Cn1nnc2c1C(C)(C)[C@@H]1CC[C@]3(C)[C@H](CC[C@@H]4[C@H]5[C@H]6OC[C@@]5(CCC6(C)C)CC[C@]43C)[C@@]1(C)C2 | 4.42 | 4.38 | 4.24 | – | – | 4.28 | 4.33
C[n+]1nn(Cc2ccc(C(F)(F)F)cc2)c2c1C[C@]1(C)[C@H]3CC[C@@H]4[C@H]5[C@H]6OC[C@@]5(CCC6(C)C)CC[C@@]4(C)[C@]3(C)CC[C@H]1C2(C)C | 5.65 | 5.51 | 5.50 | – | – | 5.55 | 5.60
COc1ccccc1CCn1n[n+](C)c2c1C(C)(C)[C@@H]1CC[C@]3(C)[C@H](CC[C@@H]4[C@H]5[C@H]6OC[C@@]5(CCC6(C)C)CC[C@]43C)[C@@]1(C)C2 | 5.85 | 5.78 | 5.78 | – | – | 5.91 | 5.81
C[n+]1nn(CCc2c[nH]c3ccccc23)c2c1C[C@]1(C)[C@H]3CC[C@@H]4[C@H]5[C@H]6OC[C@@]5(CCC6(C)C)CC[C@@]4(C)[C@]3(C)CC[C@H]1C2(C)C | 5.54 | 5.50 | 5.50 | – | – | 5.52 | 5.50
COc1cccc(CCn2n[n+](C)c3c2C(C)(C)[C@@H]2CC[C@]4(C)[C@H](CC[C@@H]5[C@H]6[C@H]7OC[C@@]6(CCC7(C)C)CC[C@]54C)[C@@]2(C)C3)c1 | 5.66 | 5.54 | 5.69 | – | – | 5.63 | 5.57
Cc1ccc(Cn2n[n+](C)c3c2C(C)(C)[C@@H]2CC[C@]4(C)[C@H](CC[C@@H]5[C@H]6[C@H]7OC[C@@]6(CCC7(C)C)CC[C@]54C)[C@@]2(C)C3)cc1 | 5.83 | 5.66 | 5.58 | – | – | 5.67 | 5.64
CC1(C)CC[C@]23CC[C@]4(C)[C@H](CC[C@@H]5[C@@]6(C)Cc7nnn(Cc8ccccn8)c7C(C)(C)[C@@H]6CC[C@]54C)[C@H]2[C@H]1OC3 | < 4.10 | < 4.10 | < 4.10 | – | – | < 4.10 | < 4.10
COC(Cn1nnc2c1C(C)(C)[C@@H]1CC[C@]3(C)[C@H](CC[C@@H]4[C@H]5[C@H]6OC[C@@]5(CCC6(C)C)CC[C@]43C)[C@@]1(C)C2)OC | < 4.10 | < 4.10 | < 4.10 | – | – | < 4.10 | < 4.10
C[n+]1nn(Cc2ccc(Cl)cc2)c2c1C[C@]1(C)[C@H]3CC[C@@H]4[C@H]5[C@H]6OC[C@@]5(CCC6(C)C)CC[C@@]4(C)[C@]3(C)CC[C@H]1C2(C)C | 5.79 | 5.61 | 5.67 | – | – | 5.57 | 5.76
C[n+]1nn(Cc2ccc(Cl)c(Cl)c2)c2c1C[C@]1(C)[C@H]3CC[C@@H]4[C@H]5[C@H]6OC[C@@]5(CCC6(C)C)CC[C@@]4(C)[C@]3(C)CC[C@H]1C2(C)C | 5.64 | 5.55 | 5.52 | – | – | 5.52 | 5.53
CC1(C)CC[C@]23CC[C@]4(C)[C@H](CC[C@@H]5[C@@]6(C)Cc7nnn(Cc8ccc(Cl)cc8)c7C(C)(C)[C@@H]6CC[C@]54C)[C@H]2[C@H]1OC3 | 4.35 | 4.29 | 4.19 | – | – | 4.21 | 4.18
COC(Cn1n[n+](C)c2c1C(C)(C)[C@@H]1CC[C@]3(C)[C@H](CC[C@@H]4[C@H]5[C@H]6OC[C@@]5(CCC6(C)C)CC[C@]43C)[C@@]1(C)C2)OC | 5.39 | 5.27 | 5.26 | – | – | 5.18 | 5.20
CCCCn1n[n+](C)c2c1C(C)(C)[C@@H]1CC[C@]3(C)[C@H](CC[C@@H]4[C@H]5[C@H]6OC[C@@]5(CCC6(C)C)CC[C@]43C)[C@@]1(C)C2 | 5.66 | 5.40 | 5.29 | – | – | 5.49 | 5.40
CC1(C)CC[C@]23CC[C@]4(C)[C@H](CC[C@@H]5[C@@]6(C)Cc7nnn(CCc8c[nH]c9ccccc89)c7C(C)(C)[C@@H]6CC[C@]54C)[C@H]2[C@H]1OC3 | 4.99 | 4.66 | 4.74 | – | – | 4.70 | 4.84
C[n+]1nn(Cc2cccc(Cl)c2)c2c1C[C@]1(C)[C@H]3CC[C@@H]4[C@H]5[C@H]6OC[C@@]5(CCC6(C)C)CC[C@@]4(C)[C@]3(C)CC[C@H]1C2(C)C | 5.72 | 5.68 | 5.52 | – | – | 5.62 | 5.57
CCCCCCn1n[n+](C)c2c1C(C)(C)[C@@H]1CC[C@]3(C)[C@H](CC[C@@H]4[C@H]5[C@H]6OC[C@@]5(CCC6(C)C)CC[C@]43C)[C@@]1(C)C2 | 5.88 | 5.61 | 5.51 | – | – | 5.78 | 5.71
